Assay results published in patent publication US9771562B2, “Method for culture of human and mouse prostate organoids and uses thereof” (THE TRUSTEES OF COLUMBIA UNIVERSITY IN THE CITY OF NEW YORK, priority 2012, dated 2017).
Values joined by “and” are separate entries in the source; they are usually repeats but may differ in a detail not shown here. Equal entries are not always repeated. Where two headings read alike, the source gives them in different places.

Assays:
[1] = test system: organoids from Nkx3.1^CreERT2/+; Pten^flox/flox; R26R-YFP/+ (NP) mice; assay: Drug treatment of NP tumor organoids: efficiency of organoid formation; assay type: cell-based, mouse; conditions: 1 nM MK-8669; for Frequency (efficiency of organoid formation), Average: average of 3 wells; for Frequency (efficiency of organoid formation), Average / Total organoids counted / Frequency (efficiency of organoid formation): 1000 cells/well, 100 nM DHT control, or without DHT: 10 μM enzalutamide; for Total organoids counted / Frequency (efficiency of organoid formation): single wells, counted after 8 days; for Frequency (efficiency of organoid formation): third passage, embedded in Matrigel; for effect on organoid formation: treatment cultures without DHT, 10 μM enzalutamide
Protocol: Next it was determined whether tumor organoids could be utilized to assess drug response, using organoids from Nkx3.1^CreERT2/+; Pten^flox/flox; R26R-YFP/+ (NP) mice, which were previously used to analyze therapeutic response in vivo [48]. […] To assess therapeutic response, YFP-positive prostate cells were isolated from tamoxifen-induced NP mice for organoid culture, and subsequently dissociated organoids at the third passage to single cell suspensions, followed by plating at 1,000 cells/well embedded within Matrigel/culture medium. Control cultures were established in the presence of DHT, while treatment cultures were established without DHT.
For serial passaging experiments, organoids were passaged at a 1:4 dilution every 1-2 weeks with 0.25% trypsin for 5 minutes at 37° C., followed by mechanical dissociation to nearly single-cell suspensions. Organoids were frozen in complete media with 50% FBS and 10% DMSO. The efficiency of organoid formation was calculated by averaging the number of organoids visible in each well after 7 days of growth using a 10× objective. For statistical analyses, efficiency percentages were arcsin converted to perform unpaired two-tailed Student's t-tests.
The embedding method was used to culture organoids for drug treatment experiments. […] 40 μl of the resulting cell suspension containing 500-3,000 dissociated cells were mixed with 60 μl of Matrigel, and the mixture pipetted around the rim of wells in a 24 well plate. The mixture was allowed to solidify for 30 minutes at 37° C., prior to addition of 400 μl organoid culture medium to each well, with or without supplementation with 100 nm DHT in the presence or absence of drugs. The culture medium was changed every other day, and organoids were counted after 8 days. Drugs were dissolved in DMSO to generate a final concentration of 0.1% in all drug-treated groups. Drug concentrations were as follows: 100 nM DHT, no additions, 0.1% DMSO, 10 μM enzalutamide (provided by Charles Sawyers, Memorial Sloan-Kettering Cancer Center), 1 nM MK-8669 (provided by Cory Abate-Shen, Columbia University Medical Center).

AR-regulated genes = conditions: after DHT withdrawal, passage 1
Protocol: (§1) To examine the effects of androgen-deprivation, organoids established from normal prostate epithelium were cultured and passaged in the presence or absence of DHT. […] To assess the molecular response to androgen-deprivation, quantitative RT-PCR (qPCR) analysis of the expression of several known AR-regulated genes was performed at passage 1.
For RNA extraction, 4-6 wells of organoids were pooled, pelleted, and dissolved in Trizol reagent prior to processing by the MagMAX 96 Total RNA Isolation Kit (Ambion, Life Technologies). 300-500 ng of RNA was used for cDNA synthesis using the Superscript First Strand Synthesis System (Invitrogen). Quantitative real-time PCR was carried out using SYBR green master mix reagent (QIAGEN) in the Realplex2 instrument (Eppendorf). cDNA samples were diluted 1:5 to 1:10 for all analyses, which were performed in triplicate. Expression values were obtained using the ΔΔCT method and normalized to GAPDH expression; average values are shown as the mean±standard deviation (SD).

AR [2] = conditions: NPK-CARN organoids
Excerpt: In particular, Nkx3.1^CreERT2/+; Pten^flox/flox; Kras^LSL-G12D/+; R26R-YFP/+ mice (termed NPK) were castrated and induced with tamoxifen, so that combined Pten deletion, Kras^G12D activation, and YFP expression occurred specifically in CARNs (FIG. 33A). Transformed lineage-marked CARNs were isolated by flow cytometry on the basis of their YFP expression, and used for organoid culture.
For immunostaining, sections underwent antigen-retrieval by boiling in citrate acid-based antigen unmasking solution (Vector Labs) for 10 min. Primary antibodies were applied to sections and incubated at 4° C. overnight in a humidified chamber. Alexa Fluors (Life Technologies) were used for secondary antibodies. Tyramide amplification (Life Technologies) or ABC Elite (Vector Labs) kits were used for signal detection.

[3] = test system: organoids established from normal prostate epithelium; conditions: absence of DHT versus presence of DHT, after passaging
Protocol: as §1

AR [4] = test system: AR
Protocol: as §1

SMILES	Frequency (efficiency of organoid formation), Average [1] [%]	Total organoids counted [1]	Frequency (efficiency of organoid formation) [1]	effect on organoid formation [1]	expression of Fkbp5, Mme, and Psca (AR-regulated genes)	expression of Igfbp3 (AR-regulated genes)	AR localisation (AR [2]; in the absence of DHT)	AR localisation (AR [2]; in the presence of DHT)	organoid size [3]	AR immunostaining (AR [4]; in the absence of DHT)	AR immunostaining (AR [4]; in the presence of DHT)
CO[C@H]1C[C@@H]2CC[C@@H](C)[C@@](O)(O2)C(=O)C(=O)N2CCCC[C@H]2C(=O)O[C@H]([C@H](C)C[C@@H]2CC[C@@H](OP(C)(C)=O)[C@H](OC)C2)CC(=O)[C@H](C)/C=C(\C)[C@@H](O)[C@@H](OC)C(=O)[C@H](C)C[C@H](C)/C=C/C=C/C=C/1C [MK-8669, ridaforolimus]	15.9	179 and 154 and 145	17.9% and 15.4% and 14.5%	minimal effects							
CNC(=O)c1ccc(N2C(=S)N(c3ccc(C#N)c(C(F)(F)F)c3)C(=O)C2(C)C)cc1F [Enzalutamide, enzalutamide]	14.9	134 and 163 and 150	13.4% and 16.3% and 15.0%	minimal effects							
C[C@]12CCC(=O)C[C@@H]1CC[C@@H]1[C@@H]2CC[C@]2(C)[C@@H](O)CC[C@@H]12 [DHT, dihydrotestosterone]	17.4	166 and 194 and 162	16.6% and 19.4% and 16.2%		down-regulated	up-regulated	mostly cytoplasmic AR	nuclear AR	reduced in size	weaker and mostly cytoplasmic	nuclear
